{
  "source": "patent US6774143B1",
  "about": "“Method for treating cells resistant to antineoplastic agents” (Novartis AG, priority 2003, dated 2004)",
  "system": "MIP 101 human colon tumor xenograft",
  "test": "Subcutaneous MIP 101 colon tumor model in athymic nude mice",
  "format": "in vivo",
  "details": "for fate of the animals: all animals",
  "text": "All cell lines that are used in animal studies are free of Mycoplasma contamination (Rapid Detection System by Gen-Probe, Inc., San Diego, Calif.) and viral contamination (MAP testing by MA BioServices, Inc., Rockville, Md.). The HCT-15 human colon tumor cell line is purchased from the American Type Culture Collection, Rockville, Md., Accession Number ATCC CCL 225. The MIP 101 human colon tumor cell line is obtained from Dr. R. Kramer (Bristol Meyers Squibb) and was previously described (Niles R M, et al. Cancer Invest. 1987;5(6):545-52). These cells are Pgp-1 (human Pgp) overexpressors, making the cells resistant to paclitaxel. All cell lines are propagated and expanded in RPMI 1640 medium containing 10% heat-inactivated FBS (Life Technologies, Grand Island, N.Y.). Cell expansions for implantation are performed in T225 tissue culture flasks. Cells are harvested at 70-90% confluency, washed once with HBSS containing 10% FBS, and are suspended in plain HBSS.\nOutbred athymic (nu/nu) female mice (“Hsd:Athymic Nude-nu” from Harlan Sprague Dawley, Indianapolis, Ind.) are anesthetized with Metofane (Mallinckrodt Veterinary, Inc., Mundelein, Ill.,). A cell suspension (100 μL) containing 1×10^6 cells is then injected sc into the right axillary (lateral) region of each animal. Tumors are allowed to grow until a volume of approximately 100 mm^3 was achieved. At this point, mice bearing tumors are sorted into groups of eight for the study. The sorting process produced groups balanced with respect to mean and range of tumor size.\nDiscodermolide is isolated from the sponge Discodermia dissoluta using the methods of (Gunasekera S P, et al. supra). Multiple batches of compound of similar purity (all>95% pure, as determined by mass spectrometry, and nuclear magnetic resonance analysis) are used throughout the various studies. Solid discodermolide is dissolved in pure ethanol to create a stock solution which is diluted just before dosing with Cremophor EL (Crm) and D5W to a final concentration of 16.7% Cremophor EL, 8.3% ethanol and 75% D5W. The compound is administered intravenously (iv). In the first study discodermolide is tested against both tumors at five different dosing schedules: (i.) 30 mg/kg dosed as two 15 mg/kg injections on day 1 of the experiment, (ii.) 30 mg/kg dosed as three 10 mg/kg injections on days 1, 2, and 3, (iii.) 15 mg/kg dosed as a single injection on day 1, (iv.) 20 mg/kg dosed as a 15 mg/kg injection on day 1, followed by a 5 mg/kg injection on day 11, and (v.) 10 mg/kg dosed as a 7.5 mg/kg injection on day 1 followed by a 2.5 mg/kg injection on day 11. In the second study discodermolide is dosed as one injection on the first day of the experiment, at 2.5 mg/kg, 5 mg/kg, 7.5 mg/kg, 10 mg/kg, 12.5 mg/kg, or 15 mg/kg. In addition the 7.5 mg/kg injection on day 1 followed by a 2.5 mg/kg injection on day 11 is repeated from the first study. The actual doses, regimens and routes of administration used for the specific models are discussed in each section separately. Positive control animals receive clinical formulations of paclitaxel (TAXOL) diluted 4-fold with D5W and administered iv once daily for five consecutive days. Vehicle control for paclitaxel is administered according to paclitaxel's schedule. In the first study vehicle controls for discodermolide (16.7% Cremophor EL, 8.3% ethanol and 75% D5W) are administered as three daily injections on days 1, 2, and 3, or as two injections on days 1, and 11. In the second study vehicle control for discodermolide is administered as a single injection on day 1.\nTumors are measured, and individual animal body weights are recorded once weekly. Standard experiments are conducted for 3 full weeks from the initial dosing.\nAntitumor activity is expressed as % T/C (comparing Δ tumor volumes for treatment group to vehicle control group). […]",
  "key": {"[1]": {"details": "first study, 7.5 mg/kg day 1 + 2.5 mg/kg day 11"}, "[2]": {"details": "first study, discodermolide iv single 15 mg/kg injection on day 1"}, "[3]": {"details": "first study, two 15 mg/kg injections on day 1 (30 mg/kg total)"}, "[4]": {"details": "second study, 7.5 mg/kg day 1 + 2.5 mg/kg day 11"}},
  "data": [
    {"smiles": "CC(=O)O[C@H]1C(=O)[C@@]2(C)[C@H]([C@H](OC(=O)c3ccccc3)[C@]3(O)C[C@H](OC(=O)[C@H](O)[C@@H](NC(=O)c4ccccc4)c4ccccc4)C(C)=C1C3(C)C)[C@]1(OC(C)=O)CO[C@@H]1C[C@@H]2O", "note": "[paclitaxel, reference compound]", "values": [
      {"measurement": "T/C", "setting": "first study, paclitaxel 15 mg/kg daily for the first 5 days", "result": 82, "unit": "%"},
      {"measurement": "T/C", "setting": "second study, paclitaxel iv once daily for five days, p<0.01", "result": 54, "unit": "%"}
    ]},
    {"smiles": "C=C/C=C\\[C@H](C)[C@H](OC(N)=O)[C@@H](C)[C@H](O)[C@@H](C)C/C(C)=C\\[C@H](C)[C@@H](O)[C@@H](C)/C=C\\[C@@H](O)C[C@@H]1OC(=O)[C@H](C)[C@@H](O)[C@H]1C", "note": "[discodermolide, (+)-Discodermolide]", "values": [
      {"measurement": "inhibition of tumor growth (in words)", "setting": "MIP 101 xenograft, athymic nude mice", "result": "statistically significant (p<0.01) and reproducible inhibition of tumor growth"},
      {"measurement": "T/C", "setting": "[1]", "result": 38, "unit": "%"},
      {"measurement": "body weight loss", "setting": "[1]", "result": 21.3, "unit": "%"},
      {"measurement": "fate of the animals", "setting": "first study, 15 mg/kg day 1 + 5 mg/kg day 11", "result": "sacrificed in the beginning of the third week of the experiment due to the excessive body weight loss"},
      {"measurement": "fate of the animals", "setting": "first study, 30 mg/kg as three 10 mg/kg injections on days 1, 2, 3", "result": "die on day 5 of the experiment"},
      {"measurement": "T/C", "setting": "[2]", "result": 36, "unit": "%"},
      {"measurement": "body weight loss", "setting": "[2]", "result": 18.9, "unit": "%"},
      {"measurement": "T/C", "setting": "[3]", "result": 24, "unit": "%"},
      {"measurement": "body weight loss", "setting": "[3]", "result": 23.4, "unit": "%"},
      {"measurement": "T/C", "setting": "[4]", "result": 35, "unit": "%"},
      {"measurement": "body weight loss", "setting": "[4]", "result": 11.4, "unit": "%"},
      {"measurement": "deaths", "setting": "[4]", "result": "One animal in that group dies from apparent drug toxicity"},
      {"measurement": "body weight loss", "setting": "second study, single injection 2.5 mg/kg", "result": 7.9, "unit": "%"},
      {"measurement": "T/C", "setting": "second study, single injection 2.5 mg/kg day 1", "result": 59, "unit": "%"},
      {"measurement": "body weight loss", "setting": "second study, single injection 5 mg/kg", "result": 10.2, "unit": "%"},
      {"measurement": "T/C", "setting": "second study, single injection 5 mg/kg day 1", "result": 57, "unit": "%"},
      {"measurement": "body weight loss", "setting": "second study, single injection 7.5 mg/kg", "result": 13.2, "unit": "%"},
      {"measurement": "T/C", "setting": "second study, single injection 7.5 mg/kg day 1", "result": 46, "unit": "%"},
      {"measurement": "body weight loss", "setting": "second study, single injection 10 mg/kg", "result": 18.7, "unit": "%"},
      {"measurement": "T/C", "setting": "second study, single injection 10 mg/kg day 1", "result": 37, "unit": "%"},
      {"measurement": "body weight loss", "setting": "second study, single injection 12.5 mg/kg", "result": 15.5, "unit": "%"},
      {"measurement": "T/C", "setting": "second study, single injection 12.5 mg/kg day 1", "result": 22, "unit": "%"},
      {"measurement": "body weight loss", "setting": "second study, single injection 15 mg/kg", "result": 11.7, "unit": "%"},
      {"measurement": "T/C", "setting": "second study, single injection 15 mg/kg day 1", "result": 18, "unit": "%"}
    ]}
  ]
}
